In patent US9056835B2, “LPA2 receptor-specific benzoic acid derivatives” (University of Tennessee Research Foundation, priority 2012, dated 2015):
Each block holds one molecule with its values, some of them ahead of it.

Key:
[1] = biological target: GPR87 (Homo sapiens, UniProt Q9BY21); assay: LPA receptor-mediated Ca2+ mobilization assay, GPR87; format: cell-based; settings: for inhibition of GPR87 Ca2+ response: 10 μM, ~EC75 LPA 18:1; for GPR87 Imax (%): inhibition by 10 μM compound of ~EC75 LPA 18:1 Ca2+ response; for EC50: agonist, Ca2+ mobilization
GPR87, sequence (Q9BY21 whole entry): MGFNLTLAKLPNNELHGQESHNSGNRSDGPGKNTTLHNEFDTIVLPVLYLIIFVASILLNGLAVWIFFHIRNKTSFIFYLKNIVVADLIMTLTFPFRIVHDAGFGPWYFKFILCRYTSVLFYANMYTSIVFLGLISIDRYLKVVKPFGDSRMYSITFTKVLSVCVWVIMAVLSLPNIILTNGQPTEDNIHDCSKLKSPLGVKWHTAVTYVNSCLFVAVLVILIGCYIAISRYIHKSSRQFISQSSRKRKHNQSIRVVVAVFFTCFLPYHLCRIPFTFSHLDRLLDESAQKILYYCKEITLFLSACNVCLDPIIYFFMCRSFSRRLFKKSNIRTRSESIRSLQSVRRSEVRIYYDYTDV
Protocol: Similarity searches were performed separately using each fingerprint to quantitate similarity. Hits meeting the 80% similarity threshold from each search were ranked based on the Tanimoto coefficient measure of similarity to a target molecule NSC12404, and the top 75 unique hits from each fingerprint search were selected for further analysis. The 225 compounds selected for further analysis were clustered based on Tanimoto coefficients calculated using Molecular ACCess System-key fingerprints (MACCS keys) and evaluated using the diversity subset function implemented in MOE. This selected a diverse subset of 27 compounds for biological evaluation by choosing the middle compounds in each cluster. These 27 compounds were tested in Ca^2+ mobilization assays at a concentration of 10 μM using stable cell lines individually expressing LPA2 and also in vector-transfected control cells. Hits activating LPA2 were further tested using cells expressing the other established and putative LPA GPCRs. Experimental testing of the selected compounds identified the three new selective LPA2 agonists: GRI977143, H2L5547924, and H2L5828102. […] They arbitrarily selected GRI977143 for further characterization in cell-based assays.
J Biol Chem (2009) 284(25): 17304-17319). […] The cells were loaded with Fura-2-acetoxymethyl esther (Fura-2/AM) in Krebs buffer containing 0.01% pluronic acid for 30 min and rinsed with Krebs buffer before measuring Ca^2+ mobilization. The ratio of peak emissions at 510 nm after 2 min of ligand addition was determined for excitation wavelengths of 340 nm/380 nm. All samples were run in quadruplicate. […] The half maximally effective concentration (EC50), and inhibitory constant (Ki) values were calculated by fitting a sigmoid function to dose-response data points using KaleidaGraph software (version 4.1, Synergy Software; […]).
Mouse embryonic fibroblast (MEF) cells were isolated from E13.5 LPA1&2 double knockout (DKO) embryos. MEFs were transduced with empty vector or LPA2-containing lentiviruses and selected with 1.5 μg/ml puromycin. Cells were maintained in Dulbecco's modified Eagle medium (DMEM) supplemented with 10% (V/V) fetal bovine serum (FBS), 2 mM L-glutamine, 100 U/mL penicillin, and 100 μg/mL streptomycin. Serum-free medium contained 0.1% (W/V) BSA in DMEM. The rat intestinal epithelial cell line 6 (IEC-6) was obtained from the American Type Culture Collection (Rockville, Md.) at passage 13; passages 16-21 were used in all experiments. IEC-6 cells were maintained in a humidified 37° C. incubator in an atmosphere of 90% air and 10% CO2. Growth medium consisted of DMEM supplemented with 5% heat inactivated FBS, 10 μg/mL insulin, and 50 μg/mL gentamycin. The composition of the serum-starvation medium was the same as that of the full growth medium except that it contained no FBS. The McArdle rat hepatoma cell line (RH7777) stably expressing LPA2 receptors was a gift from Dr. Fumikazu Okajima (Gunma University, Maebashi, Japan). RH7777 cells stably expressing LPA1 or LPA3 receptors were generated in-house and had been characterized earlier. Wild type and LPA receptor (LPAR) stably transfected RH7777 cells were grown in DMEM supplemented with 10% FBS and 2 mM L-glutamine in the presence of 250 μg/ml G418. Chinese hamster ovary (CHO) cells stably expressing either vector or LPA4 receptor were a kind gift from Dr. Takao Shimizu (Tokyo University; Tokyo, Japan). Cells were cultured in Ham's F12 medium containing 10% FBS, 2 mM L-glutamine, and 350 μg/ml G418. Rat neuroblastoma cells (B103) were transduced with the lentivirus harboring wild type of FLAG-LPA5 and selected with puromycin to establish the stable cell lines. The stable cells were maintained in DMEM supplemented with 10% FBS and 0.4 μg/ml puromycin. GPR87- and P2Y10-expressing CHO cells and vector-transfected control cells were a gift from Dr. Norihisha Fujita (Ritsumeikan University; Shiga, Japan). […]

[2] = tested on: IEC-6 cells; assay: TNF-α/CHX-induced apoptosis, DNA fragmentation; format: cell-based, rat; settings: OTP 10 μM, LPA 1 μM, GRI977143 10 μM
Protocol: Confluent serum-starved IEC-6 cells were treated with or without TNF-α (10 ng/ml)/cycloheximide (CHX) (20 μg/ml) in the presence of OTP (10 μM), GRI977143 (10 μM), or LPA (1 μM) for 3 h. Cells were washed twice with PBS and the quantitative DNA fragmentation assay was carried out as described previously (Valentine et al., (S)—FTY720-vinylphosphonate, an analogue of the immunosuppressive agent FTY720, is a pan-antagonist of sphingosine 1-phosphate GPCR signaling and inhibits autotaxin activity. Cell Signal (2010) 22(10): 1543-1553).
Apoptotically-challenged cells were washed twice with PBS, and a quantitative DNA fragmentation assay was carried out using a Cell Death Detection ELISA PLUS kit (Roche Diagnostics, Penzberg, Germany) and normalized to protein concentration using the BCA Protein Assay Kit (Thermo Fisher Scientific, Inc.; Rockford, Ill.) as described previously (Valentine et al., 2010). Aliquots of nuclei-free cell lysate were placed in streptavidin-coated wells and incubated with anti-histone-biotin antibody and anti-DNA peroxidase-conjugated antibody for 2 h at room temperature. After the incubation, the sample was removed, and the wells were washed and incubated with 100 μl 2,2′-azino-di[3-ethylbenzthiazolin-sulfonate substrate at room temperature before the absorbance was read at 405 nm. Results were expressed as absorbance at 405 nm/min/mg protein as detailed in our previous report (Ray et al., Mdm2 inhibition induces apoptosis in p53 deficient human colon cancer cells by activating p73- and E2F1-mediated expression of PUMA and Siva-1. Apoptosis (2011) 16(1): 35-44).

Molecule: O=C(O)c1cc(Cl)c(Cl)cc1C(=O)Nc1ccc2c(c1)C(=O)c1ccccc1-2 [Compound H2L5547924]
- inhibition of GPR87 Ca2+ response [1]: partially inhibited
- GPR87 Imax (%) [1]: 31%

Molecule: O=C(O)c1ccccc1C(=O)Nc1ccc2c(c1)C(=O)c1ccccc1C2=O [Compound H2L5828102]
- inhibition of GPR87 Ca2+ response [1]: partially inhibited
- GPR87 Imax (%) [1]: 21%

Molecule: O=C(O)c1ccccc1SCCCN1C(=O)c2cccc3cccc(c23)C1=O [GRI977143]
- EC50 [1]: > 10 µM
- DNA fragmentation induced by TNF-α/CHX [2]: significantly reduced

- EC50 [1]: 0.049 µM
Molecule: CCCCCCCC/C=C\CCCCCCCC(=O)OC[C@@H](O)COP(=O)(O)O [LPA 18:1, Lysophosphatidic acid (18:1)]
- DNA fragmentation induced by TNF-α/CHX [2]: significantly reduced

Molecule: O=C(O)c1ccccc1C(=O)Nc1ccc2c(c1)C(=O)c1ccccc1-2 [NSC12404]
- EC50 [1]: > 10 µM

Molecule: octadecenyl thiophosphate [OTP]
- EC50 [1]: 3 µM
- DNA fragmentation induced by TNF-α/CHX [2]: completely blocked
